Laboratory results: ChEMBL document CHEMBL1777780, “Discovery of XEN907, a spirooxindole blocker of NaV1.7 for the treatment of pain” (Bioorg Med Chem Lett, 2011)

Columns and labels:
[1] = Cmax in Lewis rat at 3 mg/kg, iv; format: ADME, organism-based; set-up: dose 3 mg/kg, route intravenous; settings: in vivo
[2] = Tmax in Lewis rat at 10 mg/kg, po; format: ADME, organism-based; set-up: dose 10 mg/kg, route oral; settings: in vivo
[3] = AUClast in Lewis rat at 3 mg/kg, iv; format: ADME, organism-based; set-up: time 0 - last, dose 3 mg/kg, route intravenous; settings: plasma
[4] = Metabolic stability in rat hepatocytes assessed as compound remaining after 2 hrs; format: ADME, cell-based, Hepatocyte; settings: read-out: Stability
[5] = AUClast in Lewis rat at 10 mg/kg, po; format: ADME, organism-based; set-up: time 0 - last, dose 10 mg/kg, route oral; settings: plasma
[6] = Cmax in Lewis rat at 10 mg/kg, po; format: ADME, organism-based; set-up: dose 10 mg/kg, route oral; settings: in vivo
[7] = Clearance in Lewis rat at 3 mg/kg, iv; format: ADME, organism-based; set-up: dose 3 mg/kg, route intravenous; settings: in vivo
[8] = Oral bioavailability in Lewis rat at 10 mg/kg; format: ADME, organism-based; settings: in vivo
[9] = Permeability from apical to basolateral side in human Caco2 cells; format: ADME, cell-based; settings: Caco-2, read-out: permeability
[10] = Half life in Lewis rat at 3 mg/kg, iv; format: ADME, organism-based; set-up: dose 3 mg/kg, route intravenous; settings: in vivo
[11] = Permeability from basolateral to apical side in human Caco2 cells; format: ADME, cell-based; settings: Caco-2, read-out: permeability
[12] = Metabolic stability in dog hepatocytes assessed as compound remaining after 2 hrs; format: ADME, cell-based, Canis lupus familiaris, Hepatocyte; settings: read-out: Stability
[13] = Metabolic stability in human hepatocytes assessed as compound remaining after 2 hrs; format: ADME, cell-based, Hepatocyte; settings: read-out: Stability
[14] = Volume of distribution at steady state in Lewis rat at 3 mg/kg, iv; format: ADME, organism-based; set-up: dose 3 mg/kg, route intravenous; settings: in vivo, read-out: Vdss

Row | Structure (SMILES) | Papp A→B [9] [×10⁻⁶ cm/s] | Papp B→A [11] [×10⁻⁶ cm/s] | further results
1 | CCCCCN1C(=O)C2(COc3cc4c(cc32)OCO4)c2ccccc21 (configuration not stated) | 5.9 | 7.2 | Cmax [1]: 953 ng/mL; Tmax [2]: 0.33 h; AUC(0-t) [3]: 320 ng·h/mL; remaining at 2 h [4]: 21%; AUC(0-t) [5]: 143 ng·h/mL; Cmax [6]: 35 ng/mL; clearance [7]: 157 mL/min/kg; bioavailability [8]: 13%; half-life [10]: 2.6 h; remaining at 2 h [12]: 46%; remaining at 2 h [13]: 34%; Vd [14]: 35 L/kg
2 | O=C1N(Cc2ccc3c(c2)OCO3)c2ccccc2C1(O)c1ccc2c(c1)OCO2 (configuration not stated) | 7.7 | 12.1 | –
3 | COc1ccc(CN2C(=O)C(O)(c3ccc4c(c3)OCO4)c3ccccc32)cc1 (configuration not stated) | 6.5 | 11.9 | –
4 | CCCCCN1C(=O)C(N)(c2ccc3c(c2)OCO3)c2ccccc21 (configuration not stated) | 22 | 22.3 | –
5 | O=C1N(Cc2ccc(C(F)(F)F)cc2)c2ccccc2C1(O)c1ccc2c(c1)OCO2 (configuration not stated) | 5.4 | 7.9 | –
6 | CCCCCN1C(=O)C(C)(c2ccc3c(c2)OCO3)c2ccccc21 (configuration not stated) | 2.4 | 3.6 | –
7 | CCCCCN1C(=O)C(O)(c2ccc3c(c2)OCO3)c2ccccc21 (configuration not stated) | 28.9 | 25.4 | –
8 | CCC(C)CCN1C(=O)C(O)(c2ccc3c(c2)OCO3)c2ccccc21 (configuration not stated) | 10.5 | 11.5 | –
9 | O=C1N(CC2CCC2)c2ccccc2C1(O)c1ccc2c(c1)OCO2 (configuration not stated) | 21.7 | 21.1 | –
10 | O=C1N(Cc2ccc(Cl)cc2)c2ccccc2C1(O)c1ccc2c(c1)OCO2 (configuration not stated) | 9 | 10.9 | –
11 | O=C1N(CCC2CC2)c2ccccc2C1(O)c1ccc2c(c1)OCO2 (configuration not stated) | 19.9 | 19.8 | –
12 | O=C1N(Cc2ccc(Cl)cc2)c2ccccc2C1(O)c1ccccc1 (configuration not stated) | 13.1 | 12.5 | –
13 | CCCCCN1C(=O)C2(CCc3cc4c(cc32)OCO4)c2ccccc21 (configuration not stated) | 1.1 | 1.6 | –
14 | O=C1N(Cc2ccccc2)c2ccccc2C1(O)c1ccc2c(c1)OCO2 (configuration not stated) | 9.3 | 13.6 | –
15 | O=C1N(Cc2ccc(Cl)cc2)c2ccccc2C1(O)c1ccc2c(c1)OCCO2 (configuration not stated) | 1.9 | 3.5 | –
